What was measured:
in vitro = settings: mouse
BCRP [1] = target: T1, BCRP (Homo sapiens, UniProt Q9UNQ0); assay: Reversal of BCRP-mediated topotecan resistance in MCF7-MX100 cells (cell proliferation assay); settings: for Topotecan resistance of MCF7-MX100 Therapeutic index: (IC50 towards L929 or Raw264.7)/(EC50 for reversing drug resistance); for % of reversion of sensitivity of MCF7-MX100 towards topotecan: triazole dimers at 1.0 μM
T1 sequence (Q9UNQ0 1-655): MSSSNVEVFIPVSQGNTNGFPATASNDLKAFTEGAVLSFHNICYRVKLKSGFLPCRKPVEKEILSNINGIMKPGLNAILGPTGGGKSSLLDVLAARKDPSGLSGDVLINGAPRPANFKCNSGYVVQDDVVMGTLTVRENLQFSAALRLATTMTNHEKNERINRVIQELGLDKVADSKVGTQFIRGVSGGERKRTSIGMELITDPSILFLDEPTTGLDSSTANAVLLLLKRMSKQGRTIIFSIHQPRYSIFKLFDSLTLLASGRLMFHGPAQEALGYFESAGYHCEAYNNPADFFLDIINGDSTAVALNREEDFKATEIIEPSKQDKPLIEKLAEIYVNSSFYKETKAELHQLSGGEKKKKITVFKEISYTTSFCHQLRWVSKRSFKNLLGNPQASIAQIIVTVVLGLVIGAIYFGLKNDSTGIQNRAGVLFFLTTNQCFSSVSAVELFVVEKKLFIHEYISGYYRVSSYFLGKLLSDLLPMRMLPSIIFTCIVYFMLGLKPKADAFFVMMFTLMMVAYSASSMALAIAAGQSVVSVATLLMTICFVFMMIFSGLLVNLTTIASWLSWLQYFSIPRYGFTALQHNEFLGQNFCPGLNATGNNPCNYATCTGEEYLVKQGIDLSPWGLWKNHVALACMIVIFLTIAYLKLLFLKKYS

BCRP [2] = target: T1, BCRP; assay: cell-based
[3] = system: P-gp, MRP1 and BCRP transporters; assay: Selectivity for ABC transporters, determined from % of reversion (Tables 1 and 2); format: cell-based, human; settings: determined from % of reversion in Table 1 (>80% strongly, 79-50% moderately selective)
Description: Generally, the triazole dimers library can be divided into mono-selective, dual-selective and multi-selective ABC transporter modulators. Table 2 summarizes the selectivity of different active triazole dimers and some monomeric azides for the ABC transporters. […] From the study, it seems that the simple monomeric azides could be a highly BCRP-selective inhibitor. […] It is possible that differently selective (mono-, dual- and multi-) inhibitors of drug transporters could be potentially useful tools for investigation of complicated drug-resistance phenotypes and eventually, for treatment of drug-resistant cancers caused by overexpression of ABC transporters.
The selectivity of active triazole compounds for various ABC transporters was determined from the Table 1. It would be considered as strongly selective if it causes >80% of reversion. It would be considered as moderately selective if it results in 79-50% of reversion. Overall, the active triazole compounds can be divided into mono-, dual- and multi-selective for P-gp, MRP1 and BCRP transporters.

MRP1 [4] = target: T2, MRP1 (Homo sapiens, UniProt P33527); assay: Reversal of MRP1-mediated DOX resistance in 2008/MRP1 cells (cell proliferation assay); settings: for DOX resistance of 2008/MRP1 Therapeutic index: (IC50 towards L929 or Raw264.7)/(EC50 for reversing drug resistance)
T2 sequence (P33527 whole entry): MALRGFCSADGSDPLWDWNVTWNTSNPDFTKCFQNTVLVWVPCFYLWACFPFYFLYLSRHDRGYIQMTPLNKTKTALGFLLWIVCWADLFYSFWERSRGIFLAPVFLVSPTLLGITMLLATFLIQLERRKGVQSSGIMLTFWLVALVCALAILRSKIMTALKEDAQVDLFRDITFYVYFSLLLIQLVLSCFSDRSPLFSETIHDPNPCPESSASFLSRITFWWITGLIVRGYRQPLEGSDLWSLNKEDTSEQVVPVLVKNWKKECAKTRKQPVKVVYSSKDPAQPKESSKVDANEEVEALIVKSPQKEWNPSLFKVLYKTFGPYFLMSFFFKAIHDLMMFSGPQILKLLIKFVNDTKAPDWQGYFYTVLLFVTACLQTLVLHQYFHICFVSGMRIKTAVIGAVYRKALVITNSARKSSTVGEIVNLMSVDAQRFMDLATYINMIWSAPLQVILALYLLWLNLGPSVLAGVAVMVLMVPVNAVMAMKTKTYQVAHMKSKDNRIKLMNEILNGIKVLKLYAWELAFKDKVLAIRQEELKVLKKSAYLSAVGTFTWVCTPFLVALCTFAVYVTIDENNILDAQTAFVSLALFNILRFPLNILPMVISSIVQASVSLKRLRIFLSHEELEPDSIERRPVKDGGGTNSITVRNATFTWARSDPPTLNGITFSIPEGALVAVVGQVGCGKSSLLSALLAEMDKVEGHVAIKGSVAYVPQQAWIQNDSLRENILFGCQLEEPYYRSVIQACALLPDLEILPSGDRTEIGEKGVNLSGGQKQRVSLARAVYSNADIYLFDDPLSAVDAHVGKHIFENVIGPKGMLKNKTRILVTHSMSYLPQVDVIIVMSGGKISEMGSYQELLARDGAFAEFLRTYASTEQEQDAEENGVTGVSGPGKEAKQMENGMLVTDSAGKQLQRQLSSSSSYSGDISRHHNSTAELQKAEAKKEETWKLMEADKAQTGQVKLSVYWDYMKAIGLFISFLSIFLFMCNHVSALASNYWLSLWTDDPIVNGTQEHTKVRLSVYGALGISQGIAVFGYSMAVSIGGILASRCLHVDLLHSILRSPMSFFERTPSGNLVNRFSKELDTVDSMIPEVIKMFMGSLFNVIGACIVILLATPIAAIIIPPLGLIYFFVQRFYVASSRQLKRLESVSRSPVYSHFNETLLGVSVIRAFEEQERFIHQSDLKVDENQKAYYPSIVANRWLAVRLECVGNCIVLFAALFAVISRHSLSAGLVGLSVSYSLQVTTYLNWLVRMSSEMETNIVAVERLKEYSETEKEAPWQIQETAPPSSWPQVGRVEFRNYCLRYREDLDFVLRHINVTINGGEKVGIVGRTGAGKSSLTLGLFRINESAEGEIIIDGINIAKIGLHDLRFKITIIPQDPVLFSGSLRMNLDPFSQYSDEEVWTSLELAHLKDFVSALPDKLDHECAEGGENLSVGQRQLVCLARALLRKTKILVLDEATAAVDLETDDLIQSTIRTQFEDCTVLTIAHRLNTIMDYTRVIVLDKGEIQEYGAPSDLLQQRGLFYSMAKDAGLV

MRP1 [5] = target: T2, MRP1; assay: cell-based
MRP1 [6] = target: T2, MRP1; assay: Reversal of MRP1-mediated vincristine resistance in 2008/MRP1 cells (cell proliferation assay); settings: (IC50 towards L929 or Raw264.7)/(EC50 for reversing drug resistance)

## COC(=O)c1cccc(COc2c(-c3ccc(OCCOCCn4cc(CCCCOc5ccc6c(=O)cc(-c7ccccc7)oc6c5)nn4)cc3)oc3ccccc3c2=O)c1 [Ac12Az8, Methyl 3-(((4-oxo-2-(4-(2-(2-(4-(4-((4-oxo-2-phenyl-4H-chromen-7-yl)oxy)butyl)-1H-1,2,3-triazol-1-yl)ethoxy)ethoxy)phenyl)-4H-chromen-3-yl)oxy)methyl)benzoate]
In vitro
  IC50 at 5 days: > 100000 nM
BCRP [1]
  Topotecan resistance of MCF7-MX100 Therapeutic index: >17857.1
  % of reversion of sensitivity of MCF7-MX100 towards topotecan: about 80.0%
BCRP [2]
  EC50: ≤ 10 nM
[3]
  Selectivity for ABC transporters (P-gp, MRP1, BCRP): multi-selectivity towards P-gp, MRP1 and BCRP transporters

## O=c1cc(-c2ccccc2)oc2cc(OCCN(Cc3ccccc3)Cc3cn(CCOc4ccc5c(=O)cc(-c6ccccc6)oc5c4)nn3)ccc12 [Ac16Az13, 7-(2-(Benzyl((1-(2-((4-oxo-2-phenyl-4H-chromen-7-yl)oxy)ethyl)-1H-1,2,3-triazol-4-yl)methyl)amino)ethoxy)-2-phenyl-4H-chromen-4-one]
In vitro
  IC50 at 5 days: > 100000 nM
MRP1 [4]
  DOX resistance of 2008/MRP1 Therapeutic index: >169.5
MRP1 [5]
  EC50: 590 nM

## COC(=O)c1cccc(COc2c(-c3ccc(OCCOCCOCCn4cc(CCCCOc5ccc(-c6cc(=O)c7cc(C)ccc7o6)cc5)nn4)cc3)oc3ccccc3c2=O)c1 [Ac5Az9, Methyl 3-(((2-(4-(2-(2-(2-(4-(4-(4-(6-methyl-4-oxo-4H-chromen-2-yl)phenoxy)butyl)-1H-1,2,3-triazol-1-yl)ethoxy)ethoxy)ethoxy)phenyl)-4-oxo-4H-chromen-3-yl)oxy)methyl)benzoate]
In vitro
  IC50 at 5 days: > 100000 nM
BCRP [1]
  Topotecan resistance of MCF7-MX100 Therapeutic index: >111111.1
  % of reversion of sensitivity of MCF7-MX100 towards topotecan: about 64.0%
BCRP [2]
  EC50: ≤ 10 nM
[3]
  Selectivity for ABC transporters (P-gp, MRP1, BCRP): multi-selectivity towards P-gp, MRP1 and BCRP transporters

## COC(=O)c1cccc(COc2c(-c3ccc(OCCOCCn4cc(CCCCOc5ccc(-c6cc(=O)c7cc(C)ccc7o6)cc5)nn4)cc3)oc3ccccc3c2=O)c1 [Ac5Az8, Methyl 3-(((2-(4-(2-(2-(4-(4-(4-(6-methyl-4-oxo-4H-chromen-2-yl)phenoxy)butyl)-1H-1,2,3-triazol-1-yl)ethoxy)ethoxy)phenyl)-4-oxo-4H-chromen-3-yl)oxy)methyl)benzoate]
In vitro
  IC50 at 5 days: > 100000 nM
BCRP [1]
  Topotecan resistance of MCF7-MX100 Therapeutic index: >25000.0
  % of reversion of sensitivity of MCF7-MX100 towards topotecan: about 64.0%
BCRP [2]
  EC50: ≤ 10 nM
[3]
  Selectivity for ABC transporters (P-gp, MRP1, BCRP): Pgp- and BCRP-dual selectivity

## COC(=O)c1cccc(COc2c(-c3ccc(OCCOCCOCCn4cc(CN(Cc5ccccc5)Cc5cn(CCOCCOCCOc6ccc(-c7oc8ccccc8c(=O)c7OCc7cccc(C(=O)OC)c7)cc6)nn5)nn4)cc3)oc3ccccc3c2=O)c1 [Ac15Az9, Dimethyl 3,3′-(((2,2′-((((((((4,4′-((benzylazanediyl)bis(methylene))bis(1H-1,2,3-triazole-4,1-diyl))bis(ethane-2,1-diyl))bis(oxy))bis(ethane-2,1-diyl))bis(oxy))bis(ethane-2,1-diyl))bis(oxy))bis(4,1-phenylene))bis(4-oxo-4H-chromene-3,2-diyl))bis(oxy))bis(methylene))dibenzoate]
In vitro
  IC50 at 5 days: > 100000 nM
BCRP [1]
  Topotecan resistance of MCF7-MX100 Therapeutic index: >50000.0
BCRP [2]
  EC50: ≤ 10 nM
[3]
  Selectivity for ABC transporters (P-gp, MRP1, BCRP): mono-BCRP selectivity

## O=c1cc(-c2ccccc2)oc2cc(OCCCCc3cn(CCOCCOCCOc4ccc(-c5cc(=O)c6cc(F)ccc6o5)cc4)nn3)ccc12 [Ac12Az4, 6-Fluoro-2-(4-(2-(2-(2-(4-(4-((4-oxo-2-phenyl-4H-chromen-7-yl)oxy)butyl)-1H-1,2,3-triazol-1-yl)ethoxy)ethoxy)ethoxy)phenyl)-4H-chromen-4-one]
In vitro
  IC50 at 5 days: > 100000 nM
MRP1 [4]
  DOX resistance of 2008/MRP1 Therapeutic index: >525.5
[3]
  Selectivity for ABC transporters (P-gp, MRP1, BCRP): MRP1- and BCRP-dual selectivity
MRP1 [6]
  Vincristine resistance of 2008/MRP1 Therapeutic index: >736.9

## O=c1cc(-c2ccccc2)oc2cc(OCCN(Cc3ccccc3)Cc3cn(CCOCCOc4ccc(-c5cc(=O)c6cc(F)ccc6o5)cc4)nn3)ccc12 [Ac16Az7, 7-(2-(Benzyl((1-(2-(2-(4-(6-fluoro-4-oxo-4H-chromen-2-yl)phenoxy)ethoxy)ethyl)-1H-1,2,3-triazol-4-yl)methyl)amino)ethoxy)-2-phenyl-4H-chromen-4-one]
In vitro
  IC50 at 5 days: > 100000 nM
MRP1 [5]
  EC50: 123 ± 13 nM

## COC(=O)c1cccc(COc2c(-c3ccc(OCCOCCn4cc(CN(Cc5ccccc5)Cc5cn(CCOCCOc6ccc(-c7oc8ccccc8c(=O)c7OCc7cccc(C(=O)OC)c7)cc6)nn5)nn4)cc3)oc3ccccc3c2=O)c1 [Ac15Az8, Dimethyl 3,3′-(((2,2′-((((((4,4′-((benzylazanediyl)bis(methylene))bis(1H-1,2,3-triazole-4,1-diyl))bis(ethane-2,1-diyl))bis(oxy))bis(ethane-2,1-diyl))bis(oxy))bis(4,1-phenylene))bis(4-oxo-4H-chromene-3,2-diyl))bis(oxy))bis(methylene))dibenzoate]
In vitro
  IC50 at 5 days: > 100000 nM
BCRP [1]
  Topotecan resistance of MCF7-MX100 Therapeutic index: >76923.1
BCRP [2]
  EC50: ≤ 10 nM
[3]
  Selectivity for ABC transporters (P-gp, MRP1, BCRP): mono-BCRP selectivity

## O=c1cc(-c2ccc(OCCOCCn3cc(CCCOc4ccc5c(=O)cc(-c6ccccc6)oc5c4)nn3)cc2)oc2ccccc12 [Ac2Az1, 7-(3-(1-(2-(2-(4-(4-Oxo-4H-chromen-2-yl)phenoxy)ethoxy)ethyl)-1H-1,2,3-triazol-4-yl)propoxy)-2-phenyl-4H-chromen-4-one]
In vitro
  IC50 at 5 days: > 100000 nM
MRP1 [5]
  EC50: 145 ± 25 nM

## Cc1ccc2oc(-c3ccc(OCCCCc4cn(CCOCCOc5ccc(-c6cc(=O)c7ccccc7o6)cc5)nn4)cc3)cc(=O)c2c1 [Ac5Az1, 6-Methyl-2-(4-(4-(1-(2-(2-(4-(4-oxo-4H-chromen-2-yl)phenoxy)ethoxy)ethyl)-1H-1,2,3-triazol-4-yl)butoxy)phenyl)-4H-chromen-4-one]
In vitro
  IC50 at 5 days: > 57000 nM
MRP1 [5]
  EC50: 250 nM

## COC(=O)c1cccc(COc2c(-c3ccc(OCCOCCn4cc(COCCOc5ccc6c(=O)cc(-c7ccccc7)oc6c5)nn4)cc3)oc3ccccc3c2=O)c1 [Ac13Az8, Methyl 3-(((4-oxo-2-(4-(2-(2-(4-((2-((4-oxo-2-phenyl-4H-chromen-7-yl)oxy)ethoxy)methyl)-1H-1,2,3-triazol-1-yl)ethoxy)ethoxy)phenyl)-4H-chromen-3-yl)oxy)methyl)benzoate]
In vitro
  IC50 at 5 days: > 100000 nM
MRP1 [4]; triazole dimers at 1.0 μM
  % of reversion of sensitivity of 2008/MRP1 towards DOX: about 55.9%
BCRP [1]
  Topotecan resistance of MCF7-MX100 Therapeutic index: >16666.7
  % of reversion of sensitivity of MCF7-MX100 towards topotecan: about 80.0%
BCRP [2]
  EC50: ≤ 10 nM
[3]
  Selectivity for ABC transporters (P-gp, MRP1, BCRP): MRP1- and BCRP-dual selectivity

## COC(=O)c1cccc(COc2c(-c3ccc(OCCOCCOCCn4cc(COCCOc5ccc6c(=O)cc(-c7ccccc7)oc6c5)nn4)cc3)oc3ccccc3c2=O)c1 [Ac13Az9]
In vitro
  IC50 at 5 days: > 100000 nM
BCRP [1]
  Topotecan resistance of MCF7-MX100 Therapeutic index: >50000.0
  % of reversion of sensitivity of MCF7-MX100 towards topotecan: about 80.0%
BCRP [2]
  EC50: ≤ 10 nM
[3]
  Selectivity for ABC transporters (P-gp, MRP1, BCRP): Pgp- and BCRP-dual selectivity

## O=c1cc(-c2ccc(OCCCc3cn(CCOCCOc4ccc(-c5cc(=O)c6ccccc6o5)cc4)nn3)cc2)oc2ccccc12 [Ac1Az1, 2-(4-(3-(1-(2-(2-(4-(4-Oxo-4H-chromen-2-yl)phenoxy)ethoxy)ethyl)-1H-1,2,3-triazol-4-yl)propoxy)phenyl)-4H-chromen-4-one]
In vitro
  IC50 at 5 days: 60200 ± 16300 nM
MRP1 [5]
  EC50: 128 ± 32.5 nM

## O=c1cc(-c2ccc(OCCOCCOCCn3cc(CCCCOc4ccc5c(=O)cc(-c6ccccc6)oc5c4)nn3)cc2)oc2ccccc12 [Ac12Az2, 7-(4-(1-(2-(2-(2-(4-(4-Oxo-4H-chromen-2-yl)phenoxy)ethoxy)ethoxy)ethyl)-1H-1,2,3-triazol-4-yl)butoxy)-2-phenyl-4H-chromen-4-one]
In vitro
  IC50 at 5 days: > 50000 nM
MRP1 [4]
  DOX resistance of 2008/MRP1 Therapeutic index: >298.5
[3]
  Selectivity for ABC transporters (P-gp, MRP1, BCRP): MRP1- and BCRP-dual selectivity
MRP1 [6]
  Vincristine resistance of 2008/MRP1 Therapeutic index: >377.9

— patent US9611256B2, “Alkyne-, azide- and triazole-containing flavonoids as modulators for multidrug resistance in cancers” (The Hong Kong Polytechnic University, priority 2012, dated 2017)
